In one experiment the target is Y641N EZH2 (Homo sapiens, UniProt Q15910, Y641N). The experiment can be described thus: Assay for Y641N EZH2 (as the EZH2 assay, H3K27Me2 oligonucleosomes as substrate). The experiment is classed as biochemical. Particulars: Y641N EZH2 mutant, reconstituted H3K27Me2 oligonucleosomes as substrate. The procedure, abridged: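 rPRC2 (2 nM EZH2) with 0.2 μM reconstituted H3K27Me2 biotinylated oligonucleosomes, 3.6 μM H3K27me3 peptide, 0.2 μM ^3H SAM in Tris pH 8.5; compounds (80 to 0.16 μM, 2-fold) pre-incubated 20 min, reaction 60 min, SAH/EDTA quench. Tritiated product captured on streptavidin plates, scintillation counted; IC50 from 4-parameter fit.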
Sequence of Y641N EZH2 (Q15910 whole entry Y641N): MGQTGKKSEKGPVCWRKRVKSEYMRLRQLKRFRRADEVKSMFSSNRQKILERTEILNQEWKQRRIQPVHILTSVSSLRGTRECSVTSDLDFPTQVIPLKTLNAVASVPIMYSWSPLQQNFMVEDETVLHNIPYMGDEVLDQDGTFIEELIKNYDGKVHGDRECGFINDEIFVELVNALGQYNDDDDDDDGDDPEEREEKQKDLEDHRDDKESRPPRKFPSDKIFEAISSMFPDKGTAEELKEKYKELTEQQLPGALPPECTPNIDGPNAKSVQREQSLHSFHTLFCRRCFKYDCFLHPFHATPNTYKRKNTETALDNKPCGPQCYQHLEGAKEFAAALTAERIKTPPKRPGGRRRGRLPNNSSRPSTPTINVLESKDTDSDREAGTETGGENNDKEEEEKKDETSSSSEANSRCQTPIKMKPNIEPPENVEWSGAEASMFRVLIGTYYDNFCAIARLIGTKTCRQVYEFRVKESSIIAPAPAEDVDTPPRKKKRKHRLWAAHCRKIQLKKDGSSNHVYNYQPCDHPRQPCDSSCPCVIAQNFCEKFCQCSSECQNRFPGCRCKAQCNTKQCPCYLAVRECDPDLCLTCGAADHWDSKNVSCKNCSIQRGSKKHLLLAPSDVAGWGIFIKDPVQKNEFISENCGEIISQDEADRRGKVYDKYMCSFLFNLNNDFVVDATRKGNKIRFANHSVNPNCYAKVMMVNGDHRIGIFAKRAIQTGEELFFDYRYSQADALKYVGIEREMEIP
Sequence of Y641N EZH2 (O75530 whole entry partner): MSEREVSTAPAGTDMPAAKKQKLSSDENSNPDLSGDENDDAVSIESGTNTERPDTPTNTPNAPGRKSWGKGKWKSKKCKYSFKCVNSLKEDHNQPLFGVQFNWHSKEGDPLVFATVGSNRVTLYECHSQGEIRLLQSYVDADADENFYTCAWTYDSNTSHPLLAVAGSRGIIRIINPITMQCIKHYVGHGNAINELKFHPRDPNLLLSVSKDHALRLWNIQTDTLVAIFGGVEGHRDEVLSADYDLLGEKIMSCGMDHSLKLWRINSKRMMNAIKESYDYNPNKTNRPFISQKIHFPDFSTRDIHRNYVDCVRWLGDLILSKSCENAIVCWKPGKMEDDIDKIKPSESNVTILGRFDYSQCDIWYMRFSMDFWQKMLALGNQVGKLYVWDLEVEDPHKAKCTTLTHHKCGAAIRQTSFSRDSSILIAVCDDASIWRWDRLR
Sequence of Y641N EZH2 (Q15022 whole entry partner): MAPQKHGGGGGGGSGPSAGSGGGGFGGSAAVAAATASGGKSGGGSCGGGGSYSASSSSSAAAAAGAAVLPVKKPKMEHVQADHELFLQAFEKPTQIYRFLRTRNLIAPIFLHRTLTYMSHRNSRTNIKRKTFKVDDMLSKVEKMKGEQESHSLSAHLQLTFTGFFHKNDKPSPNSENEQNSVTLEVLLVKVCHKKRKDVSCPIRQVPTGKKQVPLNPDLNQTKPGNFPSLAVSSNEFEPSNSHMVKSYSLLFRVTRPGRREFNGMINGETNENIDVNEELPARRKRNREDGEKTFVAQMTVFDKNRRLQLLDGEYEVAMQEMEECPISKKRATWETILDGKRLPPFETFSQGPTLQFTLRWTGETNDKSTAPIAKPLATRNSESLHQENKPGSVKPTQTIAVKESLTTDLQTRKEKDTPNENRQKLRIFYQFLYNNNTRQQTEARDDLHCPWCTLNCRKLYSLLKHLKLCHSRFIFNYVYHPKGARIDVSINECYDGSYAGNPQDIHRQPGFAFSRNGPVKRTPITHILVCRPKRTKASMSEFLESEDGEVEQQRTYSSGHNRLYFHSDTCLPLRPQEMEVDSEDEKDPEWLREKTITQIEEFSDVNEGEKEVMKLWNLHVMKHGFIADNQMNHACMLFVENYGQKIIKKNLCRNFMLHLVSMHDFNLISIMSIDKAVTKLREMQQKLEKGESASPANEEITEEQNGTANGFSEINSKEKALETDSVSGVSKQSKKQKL

For another experiment, the target named is EZH2 (Homo sapiens, UniProt Q15910). The experiment can be described thus: EZH2 Assay (3H SAM methyl transfer, rPRC2, FlashPlate). The format is biochemical. Particulars: rPRC2, biotinylated oligonucleosomes, 0.2 μM 3H SAM, 2 nM EZH2. The method, boiled down: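 rPRC2 (2 nM EZH2) was preincubated 20 min with compound (80 to 0.16 μM, 10 points), then reacted 60 min with 0.2 μM ³H-SAM, 0.2 μM biotinylated oligonucleosomes and 3.6 μM H3K27me3 peptide at pH 8.5. Methylated product was captured on SAV FlashPlates and counted, and IC50 came from a 4-parameter fit.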
Sequence of EZH2 (Q15910 whole entry): as the sequence (Q15910 whole entry Y641N) above, with N641Y counted along it
Sequence of EZH2 (O75530 whole entry partner): as the sequence (O75530 whole entry partner) above
Sequence of EZH2 (Q15022 whole entry partner): as the sequence (Q15022 whole entry partner) above

Experiment [1] deals with H3K27me3 mark in Hela cells expressing wild type EZH2. The experiment can be described thus: H3K27me3 MSD Hela Assay. Particulars: read-out: H3K27me3_MSD_HeLa (EC50). The experiment is classed as cell-based. As to the method: H3K27me3 MSD Hela Assay. Trypsinized HeLa cells were counted and diluted in 10% DMEM (Life Technologies, Cat. #10569) to 5000 cells/75 μL. Seventy-five μL of cells were place in each well of a 96-well flat-bottomed plate and incubated at 37° C. for 4 hours. Twenty-five μL of test compound (at various concentrations) was added to the cells and incubation continued at 37° C. for 96 hours. Media was then removed and the cells rinsed once with ice cold PBS. Forty μL of ice-cold MSD Buffer AT (10 mM HEPES, pH 7.9, 5 mM MgCl2, 0.25M sucrose, Benzonase (1:10000), 1% Triton X-100 supplemented with fresh 1× Protease Inhibitor cocktail and 1 mM 4-(2-Aminoethyl)benzenesulfonyl fluoride hydrochloride (AEBSF)) was added to each well and the plates placed on ice for 30 minutes. Ten μL of 5M NaCl was then added to each well and incubation on ice continued for another 15 minutes. The material in each well was suspended pipetting up and down and then transferred to a new 96 well plate. The emptied wells were rinsed with 150 uL ice-cold 20 mM Tris pH 7.5, 1 mM EDTA, 1 mM EGTA, supplemented with fresh 1× Protease Inhibitor cocktail and 1 mM AEBSF (“NO salt NO detergent buffer) and transferred to the respective wells in the new plate. Three hundred μL of NO Salt NO detergent buffer was then added to each well of lysates and the plates frozen at −80° C.
On the same day, an appropriate number of MSD standard bind 96-well plates were coated with 30 μL/well of total H3 capture antibody (Millipore, Cat # MAB3422) at 1 μg/mL concentration in PBS. The antibody solution was evenly distributed first by tapping gently on the sides of the plates and then by shaking the plates for a few minutes at 1000 rpm. Antibody coated plates were stored at 4° C. overnight.
The next day the lysates are thawed to RT. The antibody coated MSD plates are washed 3× with TBS-T (Tris-buffered saline (Fisher Scientific, Cat #BP2471-1)+0.2% Tween-20). One-hundred fifty μL of 5% Blocker A in TBS-T is added to each well. The wells are covered and shaken on a shaker at RT for one hour. The Blocker A step is repeated a second time. After removing the blocker, 25 μL of cell lysate is transferred into each antibody coated well. The plates are shaken for 2 hours at RT, the lysate removed and the plates again washed with Blocker A in TBS-T. Twenty-five μL of appropriate freshly prepared antibody mix (including both primary and secondary antibodies) is added to each well and the plates shaken for 1 hour at RT.
Both H3 antibodies were obtained from Cell Signalling (Cat #s 4499 and 9733). The goat anti-rabbit antibody was obtained from Meso-Scale Discovery (Cat #R32AB-1).
The antibody mix was then removed and the wells washed with Blocker A. One hundred-fifty μL of freshly prepared 1×MSD Read Buffer (Meso-Scale Discovery; Cat #R927C-2) was then added to each well and the plates read on a MSD Sector 2400 Plate Reader.
Data was analyzed using Assay Assistant (Constellation Pharmaceuticals In-house product) and Activity Base (IDBS Ltd, Surrey, UK) template. Data files were imported to Assay Assistant and assay conditions were specified. A unique Analysis ID was created and the data files exported to Activity Base. An analysis template was created on Activity Base to measure dose-dependent inhibition of H3K27me3 mark and cell viability respectively. Readout of DMSO wells were used to normalize the data. Resulting curves were fitted using Activity base software Model 205 (IDBS Ltd, Surrey, UK). The data was checked for quality, validated and integrated in excel format using SARview (IDBS Ltd, Surrey, UK).

Our source for the IC50 and EC50 values is US9745305B2, “Modulators of methyl modifying enzymes, compositions and uses thereof” (Constellation Pharmaceuticals, Inc., priority 2013, dated 2017).

The structures appear in SMILES notation. Read-outs that look alike come from different tables or passages of the source.

Take `COc1cc(C)[nH]c(=O)c1CNC(=O)c1c(C)c(C(C)C2CC2)n2ncccc12` (racemic) [Compound 102, (±)-7-(1-cyclopropylethyl)-N-((4-methoxy-6-methyl-2-oxo-1,2-dihydropyridin-3-yl)methyl)-6-methylpyrrolo[1,2-b]pyridazine-5-carboxamide]: the IC50 against Y641N EZH2 and against EZH2 was less than 100 nM in each case. Moreover, in experiment [1] (Homo sapiens, HeLa, 96 h), the EC50 lay within 400 to 2000 nM.

As for `COc1cc(C)[nH]c(=O)c1CNC(=O)c1c(C)c(C(C)NS(C)(=O)=O)n2ncccc12` (racemic) [Compound 112, (±)-N-((4-methoxy-6-methyl-2-oxo-1,2-dihydropyridin-3-yl)methyl)-6-methyl-7-(1-(methylsulfonamido)ethyl)pyrrolo[1,2-b]pyridazine-5-carboxamide], the IC50 on Y641N EZH2 is 100 to 1000 nM; against EZH2, less than 100 nM. In addition, the EC50 in experiment [1] (Homo sapiens, HeLa, 96 h) was in the range of 2000 to 10000 nM.

Consider `CCN(C(C)c1c(C)c(C(=O)NCc2c(OC)cc(C)[nH]c2=O)c2cccnn12)S(C)(=O)=O` (single isomer, unassigned) [Compound 108, (R or S)-7-(1-(N-ethylmethylsulfonamido)ethyl)-N-((4-methoxy-6-methyl-2-oxo-1,2-dihydropyridin-3-yl)methyl)-6-methylpyrrolo[1,2-b]pyridazine-5-carboxamide], for which the IC50 against Y641N EZH2 is 100 to 1000 nM; on EZH2 it was less than 100 nM. For the same compound, the EC50 in experiment [1] (96 hours) is 400 to 2000 nM.

With `COc1cc(C)[nH]c(=O)c1CNC(=O)c1c(C)c(-c2c(C)noc2C)n2ncccc12` [Compound 114, 7-(3,5-dimethylisoxazol-4-yl)-N-((4-methoxy-6-methyl-2-oxo-1,2-dihydropyridin-3-yl)methyl)-6-methylpyrrolo[1,2-b]pyridazine-5-carboxamide], the IC50 against Y641N EZH2 and on EZH2 was less than 100 nM each time. Moreover, in experiment [1] (Homo sapiens, HeLa, 96 h), the EC50 was less than 400 nM.

As for `COc1cc(C)[nH]c(=O)c1CNC(=O)c1c(C)c(C(C)c2cccnc2)n2ncccc12` (racemic) [Compound 113, (±)-N-((4-methoxy-6-methyl-2-oxo-1,2-dihydropyridin-3-yl)methyl)-6-methyl-7-(1-(pyridin-3-yl)ethyl)pyrrolo[1,2-b]pyridazine-5-carboxamide], the IC50 against Y641N EZH2 and at EZH2 was less than 100 nM throughout. Besides, in experiment [1] (Homo sapiens, HeLa, 96 h), the EC50 is less than 400 nM.

Consider `CCN(C(C)c1c(C)c(C(=O)NCc2c(OC)cc(C)[nH]c2=O)c2cccnn12)S(C)(=O)=O` (single isomer, unassigned) [Compound 107, (R or S)-7-(1-(N-ethylmethylsulfonamido)ethyl)-N-((4-methoxy-6-methyl-2-oxo-1,2-dihydropyridin-3-yl)methyl)-6-methylpyrrolo[1,2-b]pyridazine-5-carboxamide], for which the IC50 is 100 to 1000 nM on Y641N EZH2 and less than 100 nM against EZH2. Besides, in experiment [1] (96 hours), the EC50 was 2000 to 10000 nM.
